Values joined by “and” are separate entries in the source; they are usually repeats but may differ in a detail not shown here. Equal entries are not always repeated. “Also recorded” adds a separate entry of the source. Structures can show the parent of a compound that is named as a salt. Where two headings read alike, the source gives them in different places.
Tests used:
Ramos tumor xenografts = assay: In vivo anti-tumor activity on Ramos tumor xenografts; parameters: species or system BALB/c nude mice; conditions: Q7D×3, i.v. (title: Q1D×1; i.v.)
[1] = for % Deaths / D/T, # Deaths/Total Treated: Daudi or Ramos bearing mice
Daudi tumor xenografts = assay: In vivo anti-tumor activity on Daudi tumor xenografts; conditions: for anti-tumor activity: Q5D×2 (days 20 and 25), 4.1 mg/kg/inj ADM and/or 630 mg/kg/inj 5E9
EGF receptor = target: T1, EGF receptor (Homo sapiens, UniProt P00533); assay: 125I-EGF competition radioisotope assay on A431 cells; format: binding; conditions: 4° C., 4 h
T1 construct: endogenous in cells; host or cells: A431 cells
Description: The retention of EGF binding activity after chemical coupling of ADM-HZN to EGF was determined by a competition radioisotope assay, using the A431 cell line. This cell line was derived from a […] and in our laboratory can bind between 1-4×10^7 molecules of EGF (results not shown). Cells, diluted in RPMI 1640 growth medium containing 10% FCS, were plated in 96-well microtiter plates (5×10^5 cells/well) 24 h before the assay. On the day of the assay, the A431 cells, which grow as an adherent cell population, were washed in DMEM containing 2% bovine serum albumin (hereafter referred to as buffer A). Cells (in triplicate) were incubated with 0.05 ml of 2-fold serially diluted EGF or EGF-ADM, and 0.05 ml of ^125 I-labeled EGF (50 ng/ml) diluted in buffer A (final volume: 0.1 ml/well). The cells were incubated at 4° C. for 4 h, and then washed 3 times with buffer A. The cells were removed from the 96-well plastic plates by solubilization with 1.0M NaOH, and the amount of cell-bound ^125 I-EGF was determined by counting on a LKB model 1272 gamma counter.

[2] = N=1, Q1D×1, i.v., ADM 14 mg/kg/inj, cumulative 14
[3] = N=1, Q2D×2, i.v., ADM 8 mg/kg/inj, cumulative 16
[4] = N=1, Q2D×2, i.v., ADM 10 mg/kg/inj, cumulative 20
[5] = N=1, Q2D×2, i.v., ADM 15 mg/kg/inj, cumulative 30
[6] = N=1, Q3D×2, i.v., ADM 12 mg/kg/inj, cumulative 24
[7] = N=1, Q3D×2, i.v., ADM 14 mg/kg/inj, cumulative 28
[8] = N=1, Q3D×2, i.v., ADM 16 mg/kg/inj, cumulative 32
[9] = N=1, Q4D×2, i.v., ADM 10 mg/kg/inj, cumulative 20
[10] = N=1, Q4D×2, i.v., ADM 14 mg/kg/inj, cumulative 28
[11] = N=1, Q4D×3, i.p., ADM 5 mg/kg/inj, cumulative 15
[12] = N=1, Q5D×2, i.p., ADM 4.1 mg/kg/inj, cumulative 8.2
[13] = N=1, Q5D×2, i.p., ADM 5.5 mg/kg/inj, cumulative 11
[14] = N=1, Q7D×3, i.v., ADM 12 mg/kg/inj, cumulative 36
[15] = N=1, Q8D×2, i.p., ADM 5 mg/kg/inj, cumulative 10
[16] = N=1, Q8D×2, i.p., ADM 10 mg/kg/inj, cumulative 20
[17] = N=1, Q8D×2, i.p., ADM 13 mg/kg/inj, cumulative 26
[18] = N=2, Q2D×2, i.v., ADM 12 mg/kg/inj, cumulative 24
[19] = N=2, Q4D×2, i.v., ADM 12 mg/kg/inj, cumulative 24
[20] = N=3, Q1D×1, i.v., ADM 16 mg/kg/inj, cumulative 16
[21] = N=3, Q7D×3, i.v., ADM 10 mg/kg/inj, cumulative 30
[22] = N=3, Q7D×3, i.v., ADM 11 mg/kg/inj, cumulative 33
[23] = N=4 experiments, Q1D×1, i.v., ADM 18 mg/kg/inj, cumulative 18
[24] = Daudi-bearing mice, 5 mg/kg/inj, cum 10, Q8D×2, i.p.
[25] = Daudi-bearing mice, 5 mg/kg/inj, cum 15, Q4D×3, i.p.
[26] = Daudi-bearing mice, 5 mg/kg/inj, cum 15, Q7D×3, i.p.
[27] = Daudi-bearing mice, 5 mg/kg/inj, cum 15, Q7D×3, i.v.
[28] = Daudi-bearing mice, 10 mg/kg/inj, cum 30, Q7D×3, i.p.
[29] = Daudi-bearing mice, 11 mg/kg/inj, cum 33, Q7D×3, i.v., hydrochloride, 11 mg/kg
[30] = Daudi-bearing mice, 12 mg/kg/inj, cum 12, Q1D×1, i.v.
[31] = Daudi-bearing mice, 13 mg/kg/inj, cum 26, Q8D×2, i.p.
[32] = Daudi-bearing mice, 15 mg/kg/inj, cum 15, Q1D×1, i.v.
[33] = Daudi-bearing mice, 18 mg/kg/inj, cum 18, Q1D×1, i.v.
[34] = Daudi-bearing mice, 20 mg/kg/inj, cum 20, Q1D×1, i.v.
[35] = Ramos-bearing mice, 16 mg/kg/inj, Q7D×3, i.v. (title: Q1D×1; i.v.)
[36] = Ramos-bearing mice, 18 mg/kg/inj, Q7D×3, i.v. (title: Q1D×1; i.v.)
[37] = 4.1 mg/kg/inj, cum 8.2, Q5D×2, i.p.
[38] = 4.5 mg/kg/inj, cum 9, Q5D×2, i.p.
[39] = 5 mg/kg/inj, cum 15, Q7D×3, i.v.
[40] = 5.5 mg/kg/inj, cum 11, Q5D×2, i.p.
[41] = 9 mg/kg/inj, cum 27, Q7D×3, i.v.
[42] = 11 mg/kg/inj, cum 33, Q7D×3, i.v., hydrochloride
[43] = 12 mg/kg/inj, cum 36, Q7D×3, i.v., hydrochloride

COc1cccc2c1C(=O)c1c(O)c3c(c(O)c1C2=O)C[C@@](O)(C(=O)CO)C[C@@H]3O[C@H]1C[C@H](N)[C@H](O)[C@H](C)O1 [ADM-HCl, adriamycin hydrochloride]
CR, complete regressions (Ramos tumor xenografts; 16 mg/kg/inj): 0
Cures (Ramos tumor xenografts; 16 mg/kg/inj): 0
T-C, delay to reach 3000 mm^3 vs untreated controls (Ramos tumor xenografts; 16 mg/kg/inj): 5 days
TDD, tumor doubling delay (Ramos tumor xenografts; 16 mg/kg/inj): 0.3
CR, complete regressions (Ramos tumor xenografts; 18 mg/kg/inj): 0
Cures (Ramos tumor xenografts; 18 mg/kg/inj): 0
T-C, delay to reach 3000 mm^3 vs untreated controls (Ramos tumor xenografts; 18 mg/kg/inj): 8 days
TDD, tumor doubling delay (Ramos tumor xenografts; 18 mg/kg/inj): 0.5
% Deaths [1, 2]: 0%
D/T, # Deaths/Total Treated [1, 2]: 0/8
% Deaths [1, 3]: 20%
D/T, # Deaths/Total Treated [1, 3]: 1/5
% Deaths [1, 4]: 60%
D/T, # Deaths/Total Treated [1, 4]: 3/5
% Deaths [1, 5]: 100%
D/T, # Deaths/Total Treated [1, 5]: 7/7
% Deaths [1, 6]: 75%
D/T, # Deaths/Total Treated [1, 6]: 6/8
% Deaths [1, 7]: 88%
D/T, # Deaths/Total Treated [1, 7]: 7/8
% Deaths [1, 8]: 100%
D/T, # Deaths/Total Treated [1, 8]: 8/8
% Deaths [1, 9]: 25%
D/T, # Deaths/Total Treated [1, 9]: 2/8
% Deaths [1, 10]: 86%
D/T, # Deaths/Total Treated [1, 10]: 6/7
% Deaths [1, 11]: 67%
D/T, # Deaths/Total Treated [1, 11]: 6/9
% Deaths [1, 12]: 20%
D/T, # Deaths/Total Treated [1, 12]: 1/5
% Deaths [1, 13]: 0%
D/T, # Deaths/Total Treated [1, 13]: 0/8
% Deaths [1, 14]: 50%
D/T, # Deaths/Total Treated [1, 14]: 4/8
% Deaths [1, 15]: 38%
D/T, # Deaths/Total Treated [1, 15]: 3/8
% Deaths [1, 16]: 100%
D/T, # Deaths/Total Treated [1, 16]: 8/8
% Deaths [1, 17]: 100%
D/T, # Deaths/Total Treated [1, 17]: 7/7
% Deaths [1, 18]: 83%
D/T, # Deaths/Total Treated [1, 18]: 10/12
% Deaths [1, 19]: 47%
D/T, # Deaths/Total Treated [1, 19]: 7/15
% Deaths [1, 20]: 10%
D/T, # Deaths/Total Treated [1, 20]: 3/31
% Deaths [1, 21]: 0%
D/T, # Deaths/Total Treated [1, 21]: 0/24
% Deaths [1, 22]: 15%
D/T, # Deaths/Total Treated [1, 22]: 4/26
% Deaths [1, 23]: 44%
D/T, # Deaths/Total Treated [1, 23]: 14/32
D/T, deaths/total animals ([1]; Daudi-bearing mice, 4.1 mg/kg/inj, cum 8.2, Q5D×2, i.p.): 1/5
D/T, deaths/total animals ([1]; Daudi-bearing mice, 4.5 mg/kg/inj, cum 9, Q5D×2, i.p., hydrochloride, 4.5 mg/kg): 0/5 and 0/8
D/T, deaths/total animals [1, 24]: 3/8
Toxicity (%), deaths [1, 24]: 37%
D/T, deaths/total animals [1, 25]: 6/9
Toxicity (%), deaths [1, 25]: 67%
D/T, deaths/total animals [1, 26]: 6/9
Toxicity (%), deaths [1, 26]: 67%
D/T, deaths/total animals [1, 27]: 1/9
Toxicity (%), deaths [1, 27]: 11%
D/T, deaths/total animals ([1]; Daudi-bearing mice, 5.5 mg/kg/inj, cum 11, Q5D×2, i.p.): 0/8
D/T, deaths/total animals ([1]; Daudi-bearing mice, 9 mg/kg/inj, cum 27, Q7D×3, i.v.): 0/10
D/T, deaths/total animals ([1]; Daudi-bearing mice, 10 mg/kg/inj, cum 20, Q8D×2, i.p.): 8/8
D/T, deaths/total animals [1, 28]: 8/8
Toxicity (%), deaths [1, 28]: 100%
D/T, deaths/total animals ([1]; Daudi-bearing mice, 10 mg/kg/inj, cum 30, Q7D×3, i.v., hydrochloride, 10 mg/kg): 0/8 and 0/7
D/T, deaths/total animals [1, 29]: 2/8 and 2/10 and 0/8
Toxicity (%), deaths [1, 29]: 25% and 20%
D/T, deaths/total animals [1, 30]: 7/7
Toxicity (%), deaths [1, 30]: 100%
Toxicity (%), deaths ([1]; Daudi-bearing mice, 12 mg/kg/inj, cum 36, Q7D×3, i.v.): 50%
D/T, deaths/total animals ([1]; Daudi-bearing mice, 12 mg/kg/inj, cum 36, Q7D×3, i.v., hydrochloride, 12 mg/kg): 4/8 and 2/8
D/T, deaths/total animals [1, 31]: 7/7
Toxicity (%), deaths [1, 31]: 100%
D/T, deaths/total animals [1, 32]: 7/7
Toxicity (%), deaths [1, 32]: 100%
D/T, deaths/total animals [1, 33]: 6/8
Toxicity (%), deaths [1, 33]: 75%
D/T, deaths/total animals [1, 34]: 7/7
Toxicity (%), deaths [1, 34]: 100%
MTD (maximum tolerated dose) ([1]; Q7D×3, i.v.): 11 mg/kg/inj
D/T, deaths/total animals [1, 35]: 1/8
Toxicity (%), deaths (lethality) [1, 35]: 12%
D/T, deaths/total animals [1, 36]: 2/8
Toxicity (%), deaths (lethality) [1, 36]: 25%
MTD (maximum tolerated dose) ([1]; i.p.): 4-5 mg/kg/inj
CR, complete regressions (Daudi tumor xenografts; [37]): 0
Cures (Daudi tumor xenografts; [37]): 0
T-C, delay to reach 3000 mm^3 vs untreated controls (Daudi tumor xenografts; [37]): 0 days
TDD, tumor doubling delay (Daudi tumor xenografts; [37]): 0
CR, complete regressions (Daudi tumor xenografts; [38]): 0
Cures (Daudi tumor xenografts; [38]): 0
T-C, delay to reach 3000 mm^3 vs untreated controls (Daudi tumor xenografts; [38]): 2.2 days
CR, complete regressions (Daudi tumor xenografts; [39]): 2
Cures (Daudi tumor xenografts; [39]): 0
T-C, delay to reach 3000 mm^3 vs untreated controls (Daudi tumor xenografts; [39]): 6.2 days
TDD, tumor doubling delay (Daudi tumor xenografts; [39]): 0.18
CR, complete regressions (Daudi tumor xenografts; [40]): 0
Cures (Daudi tumor xenografts; [40]): 0
T-C, delay to reach 3000 mm^3 vs untreated controls (Daudi tumor xenografts; [40]): 2.2 days
TDD, tumor doubling delay (Daudi tumor xenografts; [40]): .1
CR, complete regressions (Daudi tumor xenografts; [41]): 0
Cures (Daudi tumor xenografts; [41]): 1
T-C, delay to reach 3000 mm^3 vs untreated controls (Daudi tumor xenografts; [41]): 23 days
TDD, tumor doubling delay (Daudi tumor xenografts; [41]): 0.9
CR, complete regressions (Daudi tumor xenografts; 10 mg/kg/inj, cum 30, Q7D×3, i.v.): 0
TDD, tumor doubling delay (Daudi tumor xenografts; 10 mg/kg/inj, cum 30, Q7D×3, i.v., hydrochloride): 0.7 and 0.8
T-C, delay to reach 3000 mm^3 vs untreated controls (Daudi tumor xenografts; [42]): 28 days and > 42 days and 21 days
TDD, tumor doubling delay (Daudi tumor xenografts; [42]): 1.1 and > 1.3 and 0.7 and > 1.1
Cures (Daudi tumor xenografts; 12 mg/kg/inj, cum 36, Q7D×3, i.v.): 3
T-C, delay to reach 3000 mm^3 vs untreated controls (Daudi tumor xenografts; [43]): > 62 days and > 33 days
TDD, tumor doubling delay (Daudi tumor xenografts; [43]): > 2.0 and > 1.5
anti-tumor activity (Daudi tumor xenografts; i.p., hydrochloride): no anti-tumor activity
anti-tumor activity (Daudi tumor xenografts; i.p., listed as ADM, hydrochloride): inactive
growth inhibition of Daudi tumor xenografts (Daudi tumor xenografts; Q7D×3, i.v., 9, 10 or 11 mg/kg/injection): significantly inhibited in a dose dependent fashion
anti-tumor activity at MTD (Daudi tumor xenografts; i.p. route, MTD): inactive

EGF-ADM: SPDP-thiolated murine EGF reacted with ADM-HZN, 13-keto acylhydrazone linker
inhibition of 125I-EGF binding, binding activity vs unconjugated EGF (EGF receptor): only a small loss in binding activity; also recorded: retention of binding activity
